These results are taken from EP0386243A1, “PLATINUM (II) COMPLEXES” (SAGAMI CHEMICAL RESEARCH CENTER, priority 1987, dated 1989).

Read-outs that look alike come from different tables or passages of the source.

The subject of series [1] is Mouse lymphatic leukemia tumor cells, P-388. Description: Growth suppressing effect on mouse lymphatic leukemia tumor cells P-388 (48 h culture, Coulter counter cell count). The note with it: P-388 cells 5 x 10^4 cells/ml, 37°C, no more than 0.5% DMSO. It counts as cell-based. The procedure: The number of suspended cells was counted with a Coulter counter and ICso values were determined from dose response curves that were constructed for the respective compounds on the basis of percent growth inhibition as compared to the absence of the compounds.

Series [2] in a line: Toxicity: S-GPT (serum transaminase) and BUN (blood urea nitrogen) levels. It counts as in vivo.

`CC(C(=O)C(=O)[O-])c1ccc(C(=O)[O-])cc1.CC(C(=O)C(=O)[O-])c1ccc(C(=O)[O-])cc1.C[NH2+]C.C[NH2+]C.NC1CCCCC1N.[Pt+2]` (stereo not drawn) [Compound No. 33, bis{β-methyl(p-carboxyphenylpyruvato)}(trans-d,ℓ-1,2-diaminocyclohexane)platinum (II) bis(dimethylammonium) salt]: the IC50 is 0.024 µg/mL in series [1] and 28 nM in series [1] (read-out: IC50).

Take “bis(β-methylphenylpyruvato)ethylenediamine platinum (II) [Compound No. 17]”: in series [1] (read-out: IC50), the IC50 was above 10000 nM.

For “bis{β-methyl(p-isobutylphenylpyruvato)}(trans-Q-1,2-diaminocyclohexane)platinum (II) [Compound No. 14]”, in series [2] (indicator of hepatotoxicity), the “S-GPT (serum transaminase)” value is given as “did not cause any appreciable increase”. Also, the “BUN (blood urea nitrogen)” value in series [2] (indicator of nephrotoxicity) is “did not cause any appreciable increase”.
